Assay: Shelf life stability program of bupropion HBr, 25° C./60% RH, 3 and 6 months, HPLC
Format: physicochemical
Settings: 25° C./RH 60%; for Chromatographic purity B) (HPLC): 4) 2-N-(tert-Butyl)-aminopropiophenone / Chromatographic purity B) (HPLC): 5) single unknown impurity (each): LOQ 0.02%, LOD 0.002%; for Chromatographic purity A) (HPLC): 1) 3′-Chloropropiophenone / Chromatographic purity A) (HPLC): 3) 3′-Chlorobenzoic acid / Chromatographic purity A) (HPLC): 2) 3′-Chloro-2-bromopropiophenone: LOQ 0.05%; for Chromatographic purity A) (HPLC): 1) 3′-Chloropropiophenone / Chromatographic purity A) (HPLC): 3) 3′-Chlorobenzoic acid: LOD 0.01%; for Chromatographic purity A) (HPLC): 2) 3′-Chloro-2-bromopropiophenone: LOD 0.04%; for Description: specification white or almost white crystalline powder; for Assay (HPLC): on d.b.; for Chromatographic purity B) (HPLC): 6) total unknown impurities: sum of all impurity peak areas
Experimental: The stability of bupropion HBr was studied over a longer term under conditions meant to approximate standard storage or shelf conditions. Samples were prepared in closed containers and subjected to long-term storage at 25° C.+2° C. and 60%+5% RH in a stability chamber. The samples were analyzed by HPLC prior to being placed in the stability chamber (time 0) and after 3 months and 6 months. The amounts of the main degradation products present at time 0 were compared with the amounts present at 3 months and 6 months. As shown in Table 77-79 three different batches of bupropion HBr were tested. As in Example 10 each sample was tested under two HPLC assay conditions to identify 6 impurities or groups of impurities as described in Example 10.

**Q.** What does the source list for `Br.CC(NC(C)(C)C)C(=O)c1cccc(Cl)c1` (stereo not shown) [Bupropion•HBr D00895]?
**A.** Chromatographic purity (HPLC: A + B) Total impurities (3 months): 0.1%; Water content (K.F.) (3 months): 0.04%; Chromatographic purity B) (HPLC): 4) 2-N-(tert-Butyl)-aminopropiophenone (3 months): 4) 0.03%; Chromatographic purity B) (HPLC): 5) single unknown impurity (each) (3 months): 5) 0.04%; Chromatographic purity A) (HPLC): 1) 3′-Chloropropiophenone (3 months): 1) n.q.; Chromatographic purity A) (HPLC): 3) 3′-Chlorobenzoic acid (3 months): 3) n.q.; Chromatographic purity A) (HPLC): 2) 3′-Chloro-2-bromopropiophenone (3 months): 2) n.d.; Description (3 months): conform; Chromatographic purity (HPLC: A + B) Total impurities (6 months): 0.1%; Water content (K.F.) (6 months): 0.05%; Chromatographic purity B) (HPLC): 4) 2-N-(tert-Butyl)-aminopropiophenone (6 months): 4) 0.05%; Chromatographic purity B) (HPLC): 5) single unknown impurity (each) (6 months): 5) n.q.; Chromatographic purity A) (HPLC): 1) 3′-Chloropropiophenone (6 months): 1) 0.05%; Chromatographic purity A) (HPLC): 3) 3′-Chlorobenzoic acid (6 months): 3) n.q.; Chromatographic purity A) (HPLC): 2) 3′-Chloro-2-bromopropiophenone (6 months): 2) n.d.; Assay (HPLC) (6 months): 100.1%; Description (6 months): conform; Chromatographic purity B) (HPLC): 6) total unknown impurities (6 months): 6) 0.02%; Chromatographic purity (HPLC: A + B) Total impurities (9 months): n.q.; Water content (K.F.) (9 months): 0.05%; Chromatographic purity B) (HPLC): 4) 2-N-(tert-Butyl)-aminopropiophenone (9 months): 4) n.d.; Chromatographic purity B) (HPLC): 5) single unknown impurity (each) (9 months): 5) n.q.; Chromatographic purity A) (HPLC): 1) 3′-Chloropropiophenone (9 months): 1) n.q.; Chromatographic purity A) (HPLC): 3) 3′-Chlorobenzoic acid (9 months): 3) n.q.; Chromatographic purity A) (HPLC): 2) 3′-Chloro-2-bromopropiophenone (9 months): 2) n.d.; Description (9 months): conform; Chromatographic purity B) (HPLC): 6) total unknown impurities (9 months): 6) n.q.; Chromatographic purity (HPLC: A + B) Total impurities (12 months): 0.2%; Water content (K.F.) (12 months): 0.04%; Chromatographic purity B) (HPLC): 4) 2-N-(tert-Butyl)-aminopropiophenone (12 months): 4) 0.05%; Chromatographic purity B) (HPLC): 5) single unknown impurity (each) (12 months): 5) 0.07%; Chromatographic purity A) (HPLC): 1) 3′-Chloropropiophenone (12 months): 1) n.d.; Chromatographic purity A) (HPLC): 3) 3′-Chlorobenzoic acid (12 months): 3) 0.05%; Chromatographic purity A) (HPLC): 2) 3′-Chloro-2-bromopropiophenone (12 months): 2) n.d.; Description (12 months): conform; Chromatographic purity B) (HPLC): 6) total unknown impurities (12 months): 6) 0.07%; Chromatographic purity (HPLC: A + B) Total impurities (time 0): 0.1%; Water content (K.F.) (time 0): 0.04%; Chromatographic purity B) (HPLC): 4) 2-N-(tert-Butyl)-aminopropiophenone (time 0): 4) 0.04%; Chromatographic purity B) (HPLC): 5) single unknown impurity (each) (time 0): 5) 0.04%; Chromatographic purity A) (HPLC): 1) 3′-Chloropropiophenone (time 0): 1) n.d.; Chromatographic purity A) (HPLC): 3) 3′-Chlorobenzoic acid (time 0): 3) n.q.; Chromatographic purity A) (HPLC): 2) 3′-Chloro-2-bromopropiophenone (time 0): 2) n.d.; Assay (HPLC) (time 0): 99.2%; Description (time 0): conform; Chromatographic purity B) (HPLC): 6) total unknown impurities (time 0): 6) 0.04%

Reference: patent publication US7884136B2, “Modified-release formulations of a bupropion salt” (Biovail Laboratories International S.R.L., priority 2005, dated 2011)
